We go through five molecules from US20240109937A1, “BINDING PEPTIDES AND USES THEREOF” (The Johns Hopkins University, priority 2021, published 2024).

Like-named read-outs stand apart in the source and are kept apart here. Bridge positions count the residues as written; N and C are the ends. Square brackets hold non-standard residues; d marks the D form. Peptide text beside a SMILES is read from it. hArg = N=C(N)NCCCC[C@H](N)C(=O)O

Assay [1] has as its target T1, CAPN1 (Mus musculus, UniProt O35350).
T1 construct: endogenous in cells; host or cells: HL-1 cardiomyocytes
T1 sequence (O35350 1-713): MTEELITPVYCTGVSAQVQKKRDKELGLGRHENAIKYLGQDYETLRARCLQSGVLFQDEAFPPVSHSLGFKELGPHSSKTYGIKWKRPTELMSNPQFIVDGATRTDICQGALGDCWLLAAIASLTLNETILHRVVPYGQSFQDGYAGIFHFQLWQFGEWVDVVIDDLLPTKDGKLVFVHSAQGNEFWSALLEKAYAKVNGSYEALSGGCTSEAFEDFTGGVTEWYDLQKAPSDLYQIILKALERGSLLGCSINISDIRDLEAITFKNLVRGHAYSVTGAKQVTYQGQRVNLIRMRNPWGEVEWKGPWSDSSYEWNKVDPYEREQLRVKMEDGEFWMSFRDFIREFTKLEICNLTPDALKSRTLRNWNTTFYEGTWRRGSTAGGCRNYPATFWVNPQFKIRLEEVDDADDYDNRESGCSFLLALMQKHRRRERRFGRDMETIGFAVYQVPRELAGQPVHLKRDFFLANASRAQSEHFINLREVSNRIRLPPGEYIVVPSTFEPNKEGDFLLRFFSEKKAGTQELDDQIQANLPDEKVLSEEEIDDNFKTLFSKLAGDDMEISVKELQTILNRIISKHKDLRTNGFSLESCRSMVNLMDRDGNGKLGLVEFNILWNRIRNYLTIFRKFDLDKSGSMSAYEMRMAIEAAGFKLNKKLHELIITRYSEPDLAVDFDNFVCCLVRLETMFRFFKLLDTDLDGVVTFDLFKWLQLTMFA
T1 sequence (O88456 1-268 partner): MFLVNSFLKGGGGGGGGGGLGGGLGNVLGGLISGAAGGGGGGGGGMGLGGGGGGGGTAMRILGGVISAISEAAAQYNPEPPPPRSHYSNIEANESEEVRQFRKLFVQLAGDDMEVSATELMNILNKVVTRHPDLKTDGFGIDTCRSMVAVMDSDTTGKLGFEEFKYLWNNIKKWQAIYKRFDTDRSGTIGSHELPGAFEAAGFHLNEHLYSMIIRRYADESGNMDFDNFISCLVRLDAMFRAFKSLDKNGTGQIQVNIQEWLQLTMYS
Nature of the assay: Calpain activity assay (Suc-LLVY-AMC cleavage) in HL-1 cells under Ca2+ overload. The class given is cell-based. Here is the method:
Calcium (Ca^2+) Overload Protocol: Rapid and sustained intracellular Ca^2+ overload was obtained by adding the Ca^2+-ionophore, calcimycin (1 μM), to HL-1 cells incubated for 10 min in HBS KV medium (1.26 mM CaCl2, 0.81 mM MgSO4, 0.44 mM KH2PO4, 142 mM KCl, 0.27 mM K2HPO4, 5.55 mM D-glucose, 1 mM Na3VO4, 20 mM Hepes pH 7.4). To monitor intracellular Ca^2+ variations, HL-1 cells were loaded with 5 μM Fluo-4 FF AM (Molecular Probes) in HBS Na (Sigma) for 30 min before the media was replaced with HBS KV. […] Calpain (CAPN) Activity Assay: […] HL-1 cells were grown in 24-well plates and incubated for 30 min in HBS Na (Sigma) with 25 μM Suc-LLVY-AMC (SEQ ID NO: 81) and 0.01% pluronic F127 (Molecular Probes) before treatment protocols. […] CAPN activity was inhibited via the addition of either calpeptin (Tocris) or PD150606 (Calbiochem) in the incubation medium.

Assay [2] has as its system HL-1 cells. Put plainly: Cell viability assay (LDH release) in HL-1 cells under Ca2+ overload. Type of assay: cell-based, mouse. The method, then: Calcium (Ca^2+) Overload Protocol: Rapid and sustained intracellular Ca^2+ overload was obtained by adding the Ca^2+-ionophore, calcimycin (1 μM), to HL-1 cells incubated for 10 min in HBS KV medium (1.26 mM CaCl2, 0.81 mM MgSO4, 0.44 mM KH2PO4, 142 mM KCl, 0.27 mM K2HPO4, 5.55 mM D-glucose, 1 mM Na3VO4, 20 mM Hepes pH 7.4). To monitor intracellular Ca^2+ variations, HL-1 cells were loaded with 5 μM Fluo-4 FF AM (Molecular Probes) in HBS Na (Sigma) for 30 min before the media was replaced with HBS KV. […] Cell Viability Assay: HL-1 plasma membrane integrity was assessed by measuring lactate dehydrogenase (LDH) release in the culture supernatant. An enzymatic assay evaluated LDH activity. Samples of the cell-free culture supernatant were collected at indicated times in Figures/Figure Legends, while cells were lysed in 1% (w/v) Triton X-100 at the end of each experiment to estimate the remaining cellular content of LDH. The LDH activity at each time point was expressed as a percentage of total LDH activity.
(In general: LDH leaks from cells whose membrane has failed.)

Assay [3] deals with T1, CAPN1. Nature of the assay: Western blot of CAPN1 in purified mitochondria from HL-1 cells under Ca2+ overload. The settings on record: Ca2+ overload (HBS KVC), calpeptin 50 μM, PD150606 10 μM. The class given is cell-based. The method, then:
Calcium (Ca^2+) Overload Protocol: Rapid and sustained intracellular Ca^2+ overload was obtained by adding the Ca^2+-ionophore, calcimycin (1 μM), to HL-1 cells incubated for 10 min in HBS KV medium (1.26 mM CaCl2, 0.81 mM MgSO4, 0.44 mM KH2PO4, 142 mM KCl, 0.27 mM K2HPO4, 5.55 mM D-glucose, 1 mM Na3VO4, 20 mM Hepes pH 7.4). To monitor intracellular Ca^2+ variations, HL-1 cells were loaded with 5 μM Fluo-4 FF AM (Molecular Probes) in HBS Na (Sigma) for 30 min before the media was replaced with HBS KV. The fluorescence was recorded using a fluorimeter plate reader (Fluoroskan Ascent Labsystem) at wavelength settings of 485/530 nm for excitation/emission, respectively.
Mitochondria Isolation Protocol: Mitochondria were isolated from HL-1 cells in percoll density gradient. Briefly, 30×10^6 adherent cells were harvested with Trypsin/EDTA, centrifuged at 500×g for 10 min, washed in buffer A (100 mM sucrose, 1 mM EGTA, 20 mM MOPS, pH 7.4, and 1 mg/mL BSA) before cell disruption with a Dounce homogenizer. The suspension was centrifuged twice at 500× g for 5 min and the resulting supernatant at 10,000×g for 10 min at 4° C. The pellet was re-suspended in buffer B (300 mM sucrose, 1 mM EGTA, 20 mM MOPS pH 7.4, 1 mg/mL BSA), and the homogenate was layered on a two-phase (25% and 40%) percoll density gradient. […]
In general terms: In western blotting, separated proteins are transferred to a membrane and probed.

Assay [4] deals with HL-1 cells. Nature of the assay: Mitochondrial membrane potential (JC-1) assay in HL-1 cells. The class given is cell-based, mouse. Particulars: Calcimycin 1 μM in HBS KV medium. Here is the method: Calcium (Ca^2+) Overload Protocol: Rapid and sustained intracellular Ca^2+ overload was obtained by adding the Ca^2+-ionophore, calcimycin (1 μM), to HL-1 cells incubated for 10 min in HBS KV medium (1.26 mM CaCl2, 0.81 mM MgSO4, 0.44 mM KH2PO4, 142 mM KCl, 0.27 mM K2HPO4, 5.55 mM D-glucose, 1 mM Na3VO4, 20 mM Hepes pH 7.4). To monitor intracellular Ca^2+ variations, HL-1 cells were loaded with 5 μM Fluo-4 FF AM (Molecular Probes) in HBS Na (Sigma) for 30 min before the media was replaced with HBS KV. […] Mitochondrial Membrane Potential (MMP) Assay: MMP was determined using the potentiometric probe, JC-1. JC-1 (Molecular Probes) is a cationic carbocyanine dye that selectively accumulates in polarized mitochondria, where it forms red fluorescent aggregates (excitation 485/emission 590 nm). Upon mitochondrial depolarization, JC-1 is released into the cytosol, whereas a monomer emits green fluorescence (excitation 485 nm/emission 520 nm). Therefore, MMP variations were monitored as the ratio of fluorescent emissions at 590/520 nm using a fluorimeter plate reader (Fluoroskan Ascent Labsystem). HL-1 cells were incubated with JC-1 (1.5 μM) for 30 min at 37° C. in HBS Na before treatment protocols.

Assay [5] has as its system HL-1 cells. Nature of the assay: Intracellular Ca2+ (Fluo4 FF fluorescence) in HL-1 cells. The class given is cell-based, mouse. The settings on record: Calcimycin 1 μM in HBS KV medium. The method, then: Calcium (Ca^2+) Overload Protocol: Rapid and sustained intracellular Ca^2+ overload was obtained by adding the Ca^2+-ionophore, calcimycin (1 μM), to HL-1 cells incubated for 10 min in HBS KV medium (1.26 mM CaCl2, 0.81 mM MgSO4, 0.44 mM KH2PO4, 142 mM KCl, 0.27 mM K2HPO4, 5.55 mM D-glucose, 1 mM Na3VO4, 20 mM Hepes pH 7.4). To monitor intracellular Ca^2+ variations, HL-1 cells were loaded with 5 μM Fluo-4 FF AM (Molecular Probes) in HBS Na (Sigma) for 30 min before the media was replaced with HBS KV.

Assay [6] deals with T2, PPIA (Homo sapiens, UniProt P62937). Put plainly: KD determination of cyclic peptides derived from Formula (I). Type of assay: binding.
T2 sequence (P62937 whole entry, species assumed): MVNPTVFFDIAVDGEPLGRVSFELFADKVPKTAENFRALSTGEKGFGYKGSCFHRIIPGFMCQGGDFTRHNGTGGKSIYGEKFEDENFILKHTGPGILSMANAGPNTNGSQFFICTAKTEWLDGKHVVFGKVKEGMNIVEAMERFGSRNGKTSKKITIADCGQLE
Assay [7] has as its target T2, PPIA. Particulars: read-out: KD, binds and sequesters cytosolic PPIA; cited from earlier work.
Where [8] appears, read: Ca2+ overload in HBS KV medium, 5 mM EGTA in incubation media.
The mark [9] stands for this setting: Calcimycin 1 μM in HBS KV medium, dose-dependent response.

For the molecule `O=C(O)CN(CCOCCOCCN(CC(=O)O)CC(=O)O)CC(=O)O` [EGTA], the CAPN1 activation entry at CAPN1 [1] (setting [8]) is “attenuated”. Also, the “cell death (LDH release)” value in the assay with HL-1 cells [2] (setting [8]) was “attenuated”.

Take `O=C(O)/C(S)=C/c1ccc(I)cc1` [PD150606]: at CAPN1 [3], the “mitochondrial CAPN1 translocation” value is recorded as “failed to prevent”. In the assay with HL-1 cells [4], the “Ca2+ overload-induced decrease in mitochondrial membrane potential (MMP)” value is “reduced ability to restore MMP”. In addition, on CAPN1 [1] (setting [9]), the “reduction in Ca2+ overload-induced CAPN1 substrate hydrolysis” value is around 60%. The “reduction in cell death (LDH release)” value in the assay on HL-1 cells [2] (setting [9]) is reported as around 15%. The “kinetics of cytosolic Ca2+ accumulation” value in the assay with HL-1 cells [5] is listed as “neither of them had an impact”.

On to `CC[C@H](C)[C@@H]1NC(=O)[C@@H](N)CSSC[C@@H](C(N)=O)NC(=O)[C@H](C(C)C)NC(=O)[C@H](CCCCN)NC(=O)[C@H](CCCNC(=N)N)NC(=O)CNC(=O)[C@H](CC(=O)O)NC(=O)[C@H](CCCCNC(=N)N)NC(=O)[C@H](CC(C)C)NC(=O)[C@H](CCCCN)NC1=O` [X4: hR] (H-CIKL[hArg]DGRKVC-NH2; disulfide 1-11), for which, at PPIA [6], the equilibrium dissociation constant (Kd) (as a rule, the constant that tells how readily two partners part at equilibrium) is above 1000 µM.

In turn, `CC[C@H](C)[C@@H]1NC(=O)[C@@H](N)CSSC[C@@H](C(N)=O)NC(=O)[C@H](C(C)C)NC(=O)[C@H](CCCCNC(=N)N)NC(=O)[C@H](CCCNC(=N)N)NC(=O)CNC(=O)[C@H](CC(=O)O)NC(=O)[C@H](CCCCN)NC(=O)[C@H](CC(C)C)NC(=O)[C@H](CCCCN)NC1=O` [X8: hR] (H-CIKLKDGR[hArg]VC-NH2; disulfide 1-11) had a Kd at PPIA [6] above 1000 µM.

With “QSVGVSSGKLLIKLKDGRKVETDHI [AIF (370-394), Linear peptide, 25 amino acids long]”, the dissociation constant (Kd) on PPIA [7] was 12 µM.
